Experimental data reported in patent publication US10981911B2, “Imidazopyrrolopyridine as inhibitors of the JAK family of kinases” (Janssen Pharmaceutica NV, priority 2016, dated 2021).
Read-outs that look alike come from different tables or passages of the source.

Legend:
[1] = Solubility assays in simulated gastric and simulated intestinal fluids; assay type: physicochemical; details: thermodynamic from solid, 2-5 days
Procedure: Test compounds were dissolved in DMSO at a concentration of 10 mM. The test compounds were dispensed (20 μL) into Nunc 1-mL-96-Deep-Well-PP plates, and the DMSO was evaporated via nitrogen blow down from a TurboVap 96 for 6 hours or until a dry residue was produced. Then, 400 μL of solubility media was added to the well containing the dry solid. […] After the incubation period, the samples were filtered through an AcroPrep 1-mL-96-Filter plate into a new 2-mL-96-Deep-Well-PP plate, and the supernatants were quantified by UV-HPLC using a 3-point calibration ranging from 0.004-0.55 mM. The solubility for each compound was calculated from the following equation: […] Solubilities are reported as long as the compound under study was sufficiently stable to complete the corresponding solubility determination.

P-gp (MDR1) = assay: MDCK-MDR1 permeability assay; assay type: in vitro ADME; details: dog; for Papp A→B at 60 min, 5 μM / Papp B→A at 60 min, 5 μM: MDCK-MDR1, pH 7.4, @ 5 μM; for Papp A→B at 60 min, 5 μM: apical to basolateral, without P-gp inhibitor; for Papp B→A at 60 min, 5 μM: basolateral to apical; for efflux ratio at 60 min, 5 μM: MDCK-MDR1, pH 7.4, MDCK-MDR1, 5 μM, read-out: Papp(B-A)/Papp(A-B) (efflux ratio)
Procedure: Permeability measurements were conducted according to the Cyprotex protocol using the MDCK-MDR1 cell line obtained from the NIH (Rockville, Md., USA). Cells between passage numbers 6-30 were seeded onto a Multiscreen Plate™ (Millipore) at a cell density of 3.4×10^5 cells/cm^2 and cultured for three days before permeability studies were conducted. The cells in this assay form a cohesive sheet of a single cell layer filing the surface area of the culture dish, also known as a confluent monolayer, and on day four the test compound was added to the apical side of the membrane and the transport of the compound across the monolayer was monitored over a time period of 60 min.
Test compounds were dissolved in DMSO at a concentration of 10 mM. The dosing solutions were prepared by diluting test compound with assay buffer (Hanks Balanced Salt Solution), pH 7.4, at a final concentration of 5 μM. For assessment of apical to basolateral (“A-B”) permeability, buffer was removed from the apical compartment and replaced with test compound dosing solution with or without the permeability glycoprotein (“PgP”, “P-gP”, “Pgp” or “P-gp”) inhibitor elacridar (2 μM). For assessment of basolateral to apical (“B-A”) permeability, buffer was removed from the companion plate and replaced with test compound dosing solution. Incubations were carried out in duplicate at 37° C. in an atmosphere of 5% CO2 with a relative humidity of 95%. Each assay included the reference markers propranolol (high permeability) and prazosin (PgP substrate). After incubation for 60 minutes, apical and basolateral samples were diluted and test compounds quantified by LC/MS/MS using an 8-point calibration in the range 0.0039 to 3 μM with appropriate dilution of the samples (receiver dilution factor=1; donor and C0 dilution factor=10). The permeability coefficient (Papp) for each compound was calculated from the following equation: Papp=(dQ/dt)/(C0×S), where dQ/dt is the rate of permeation of the drug across the cells, C0 is the donor compartment concentration at time zero, and S is the area of the cell monolayer.
The second and third columns in Table 7 show the values of Papp(A-B) for the apical-to-basolateral compound transport without (second column) and with a P-gp inhibitor (third column, noted as P^eapp(A-B)) that was elacridar. Papp(A-B) gives an indication of permeation extent across the cells in this assay, which is envisaged to model the transcellular transport across Pgp-expressing cells, such as Pgp-expressing gastrointestinal tract cells. P^eapp(A-B) values (Papp(A-B) in the presence of the P-gp inhibitor) given in column 3 are determined to confirm the role of P-gp in the compound efflux. […] Test compound efflux ratios are given in the fifth column of Table 7 as Papp(B-A)/Papp(A-B) by using the corresponding permeability coefficient values from the fourth and second columns in the same table.

IL-2 pSTAT5 (JAK1/JAK3) = IL-2 pSTAT5 (JAK1/JAK3) cellular assay (AlphaLISA, PBMCs); assay type: cell-based; details: PBMC, IL-2 at 5 ng/mL
Procedure: The AlphaLISA assay (based on Alpha Technology from PerkinElmer) was performed by first plating freshly thawed PBMCs (Biological Specialty Corporation) in 384-well plates at 30,000 cells per 4 μL per well in HBSS (Hanks' Balanced Salt Solution) containing 0.1% IgG (immunoglobulin G)-free, protease-free BSA (bovine serum albumin) (Jackson ImmunoResearch Cat. No. 001-000-161). The cells were then treated with 2 μL/well of compounds diluted in DMSO at half-log titrated concentrations, with a highest test concentration of 10 μM and 0.5% final DMSO concentration, for thirty minutes at 37° C. […] Compound IC50 was calculated by nonlinear regression, sigmoidal dose response analysis of the half-log dilution titration curve of the compound concentration vs. Alpha signal. The acronym “Alpha” stands for amplified luminescent proximity homogeneous assay; the Alpha signal is a luminescent/fluorescent signal.

IFNα pSTAT4 (JAK1/TYK2) = IFNα pSTAT4 (JAK1/TYK2) cellular assay (AlphaLISA, PBMCs); assay type: cell-based; details: PBMC, IFNα at 4 ng/mL
Procedure: The AlphaLISA assay (based on Alpha Technology from PerkinElmer) was performed by first plating freshly thawed PBMCs (Biological Specialty Corporation) in 384-well plates at 100,000 cells per 6 μL per well in DMEM (Dulbecco's Modified Eagle Medium) containing 10% FBS (fetal bovine serum) and 1,000 I.U./mL penicillin and 1,000 μg/mL streptomycin. The cells were then treated with 2 μL/well of compounds diluted in DMSO at half-log titrated concentrations, with a highest test concentration of 10 μM and 0.5% final DMSO concentration, for thirty minutes at 37° C. Next, the cells were stimulated with 2 μL/well of IFNα (PBL Assay Science Cat. No. 11101-2) at 4 ng/mL for thirty minutes at 37° C. The cellular reactions were terminated by the addition of 2 μL/well of lysis buffer (PerkinElmer Cat. No. ALSU-PST4-A10K) followed by an incubation of five minutes at room temperature. 4 μL/well of acceptor mix (PerkinElmer Cat. No. ALSU-PST4-A10K) was added to the cells and incubated in the dark for one hour at room temperature. Then, 4 μL/well of donor mix (PerkinElmer Cat. No. ALSU-PST4-A10K) was added to the cells and incubated in the dark overnight at room temperature. Finally, the plates were read on a PerkinElmer EnVision for detection of the time-resolved fluorescence signal. The percentage of IFNα-dependent pSTAT4 inhibition was determined at the compound test concentrations; and for each compound, a dose curve was generated and the IC50 was calculated. Compound IC50 was calculated by nonlinear regression, sigmoidal dose response analysis of the half-log dilution titration curve of the compound concentration vs. Alpha signal. The term “Alpha” is defined in the immediately preceding cellular assay description.

[2] = simulated gastric fluid, ambient temperature, read-out: SGF solubility
[3] = fassif, simulated intestinal fluid, fasted state pH 6.5, ambient temperature, read-out: SIF solubility

Compound | solubility [1, 2] [µM] | Papp A→B at 60 min, 5 μM (P-gp (MDR1)) [×10⁻⁶ cm/s] | Papp B→A at 60 min, 5 μM (P-gp (MDR1)) [×10⁻⁶ cm/s] | efflux ratio at 60 min, 5 μM (P-gp (MDR1)) | IC50 (IL-2 pSTAT5 (JAK1/JAK3)) [nM] | IC50 (IFNα pSTAT4 (JAK1/TYK2)) [nM] | solubility [1, 3] [µM]
CC(C)(O)CNC(=O)Cc1nc2cnc3[nH]ccc3c2n1[C@H]1CC[C@H](CC#N)CC1 [Ex. 1, 2-(1-((1r,4r)-4-(Cyanomethyl)cyclohexyl)-1,6-dihydroimidazo[4,5-d]pyrrolo[2,3-b]pyridin-2-yl)-N-(2-hydroxy-2-methylpropyl)acetamide] | > 400 | < 0.5 | 0.9 | > 1.9 |  |  | 
N#CCC1CCC(n2c(-c3c[nH]cn3)nc3cnc4[nH]ccc4c32)CC1 (stereo not shown) [Ex. 2, 2-((1r,4r)-4-(2-(1H-Imidazol-4-yl)imidazo[4,5-d]pyrrolo[2,3-b]pyridin-1(6H)-yl)cyclohexyl)acetonitrile] | > 400 | 1.1 | 4.8 | 4.4 | 9 | 20.8 | > 400
N#CC[C@H]1CC[C@H](n2c(CC(=O)NCC3CC3)nc3cnc4[nH]ccc4c32)CC1 [Ex. 3, 2-(1-((1r,4r)-4-(Cyanomethyl)cyclohexyl)-1,6-dihydroimidazo[4,5-d]pyrrolo[2,3-b]pyridin-2-yl)-N-(cyclopropylmethyl)acetamide] | > 400 | < 0.4 | 17 | > 41 | 6.4 | 10.1 | > 400
N#CCCNC(=O)Cc1nc2cnc3[nH]ccc3c2n1[C@H]1CC[C@H](CC#N)CC1 [Ex. 4, N-(2-Cyanoethyl)-2-(1-((1r,4r)-4-(cyanomethyl)cyclohexyl)-1,6-dihydroimidazo[4,5-d]pyrrolo[2,3-b]pyridin-2-yl)acetamide] | > 400 | 0.1 | 1.3 | 8.7 | 35.5 | 64.7 | > 400
N#CC[C@H]1CC[C@H](n2c(CC(=O)NC3CCOCC3)nc3cnc4[nH]ccc4c32)CC1 [Ex. 5, 2-(1-((1r,4r)-4-(Cyanomethyl)cyclohexyl)-1,6-dihydroimidazo[4,5-d]pyrrolo[2,3-b]pyridin-2-yl)-N-(tetrahydro-2H-pyran-4-yl)acetamide] | > 400 | < 0.4 | 1.8 | > 4.8 | 6.4 | 38.1 | 
